According to US6878690B2, “Compounds and methods” (PharmAxis Pty Ltd., priority 2000, dated 2005):
Where “and” joins values, the source holds several entries; their conditions need not be identical. Identical values can stand only once.

System: passively transferred EAE
Assay: Passively transferred EAE induced with encephalitogenic MBP-specific T cell line (Example 23)
Type: in vivo, Lewis rats
Settings: for clinical scores treated, mean: group mean; for clinical scores treated, mean / clinical scores treated: scale 0 to 5; for clinical scores treated: individual rats, 45 mg/kg/rat/day mini-osmotic pump
Method: In order to study the effect of the agents of the present invention in vivo on a disease caused by T lymphocyte migration into a specific tissue, experiments were performed in the Lewis rat model of passively transferred EAE. Here, myelin basic protein (MBP)-specific T lymphocyte cell lines were generated from the draining lymph nodes of Lewis rats that had been immunised with MBP in Freund's complete adjuvant essentially according to the method of Ben-Nun et al. (1981) as described in Example 8. Thus, in this manner, donor T lymphocytes were generated from female 10 to 12 week old Lewis rats weighing 150 to 200 g. These rats were injected intradermally in a footpad of each hind foot with an emulsion of Guinea pig myelin basic protein (MBP; prepared according to the method of Deibler et al., 1972; incorporated herein by reference) in Freund's complete adjuvant (0.05 ml). The adjuvant emulsion was prepared by emulsifying equal volumes of a mixture of light mineral oil (Sigma) and normal saline containing Guinea pig myelin basic protein (0.5 mg/ml) and Mycobacterium butyricum (4 mg/ml; Difco). Thus, the total dose per rat was 50 micrograms of MBP and 400 micrograms of M. butyricum. Approximately 11 days following injection, the rats were euthanased and the draining lymph nodes (popliteal and inguinal) removed aseptically by blunt dissection and placed into mixed lymphocyte culture medium. This medium was prepared in the normal fashion from Dulbecco's Modified Eagle's Medium (DMEM; GIBCO, Grand Island, N.Y.) supplemented with glucose, folic acid, L-asparagine, sodium bicarbonate, L-glutamine, sodium pyruvate, HEPES, 2-mercaptoethanol (5×10^−5 M), penicillin, streptomycin, neomycin, and 2% fetal calf serum. A single cell suspension was prepared from the lymph nodes in the usual manner by gently pushing the nodes through a stainless steel screen. The cells were washed twice in the culture medium and following this procedure, any red blood cells were lysed in the usual manner by treating with a solution of ammonium chloride, EDTA and sodium hydrogen carbonate (pH 7.3) and the preparation strained (Falcon 2350 cell strainer). The cells were washed again in the lymphocyte culture medium. All cell preparative steps were performed on ice. These cells were cultured asceptically for 72 hours at 37° C. in a humidified atmosphere containing 7.5% carbon dioxide at a concentration of 5 million cells per milliliter in the presence of MBP (0.06 mg/ml). The cells were collected and the lymphoblasts were isolated by centrifugation on a Ficoll (Pharmacia, Uppsala, Sweden) gradient in an identical manner to that described by Ben Nun et al. (1981). The fraction containing ≧90% lymphoblasts was cultured and propagated in Eagle's medium supplemented with 15% of a concanavalin A-stimulated lymphocyte supernatant to provide growth factors, 10% fetal calf serum, nonessential amino acids (Bio-Lab, Jerusalem, Israel); sodium pyruvate, 2-mercapto ethanol and antibiotics without added antigen. The cells were plated in 100 mm petri dishes at a concentration of 0.2 million cells/ml and replated every 3 or 4 days. Prior to transfer into Lewis recipients, the cells were restimulated in the presence of MBP (0.01 mg/ml) and irradiated syngeneic thymocytes for 4 days.
These cells were highly encephalitogenic sine as few as 500,000 cells were capable of inducing disease when injected into naïve Lewis rats. Thus, in a typical experiment a group of 5 female Lewis rats, approximately 9 weeks old, weighing 110±15 grams were anesthetised with diethyl ether and implanted with mini-osmotic pumps (Alzet 2002, Alza Corp., Palo Alto Calif., USA) containing phosphoric acid mono-(6-propyl-3,4,5-trihydroxy-tetrahydro-pyran-2-ylmethyl) ester mono sodium salt dissolved in normal saline at a concentration that delivered the drug at a rate of 45 mg/kg/rat/day. […]

SMILES: CCCC1OC(COP(=O)(O)O)C(O)C(O)C1O (stereo not shown) [phosphoric acid mono-(6-propyl-3,4,5-trihydroxy-tetrahydro-pyran-2-ylmethyl) ester]
- clinical scores treated, mean (day 4, 45 mg/kg/rat/day): 0
- clinical scores treated (day 4): 0
- clinical scores treated, mean (day 5, 45 mg/kg/rat/day): 0.6
- clinical scores treated (day 5, 45 mg/kg): 1 (3×) and 0 (2×)
- clinical scores treated, mean (day 6, 45 mg/kg/rat/day): 1
- clinical scores treated (day 6, 45 mg/kg): 2 (2×) and 0 (2×) and 1
- clinical scores treated, mean (day 7, 45 mg/kg/rat/day): 0.4
- clinical scores treated (day 7, 45 mg/kg): 0 (3×) and 1 (2×)
- Mean maximum clinical score (treated group, 45 mg/kg/rat/day, control group 2.0): clinical score 1.0
- disease index (DI) (treated group, 45 mg/kg/rat/day, control group DI 160): DI 40
